Measurements reported in patent publication US6169181A, “Compounds useful to treat retroviral infections” (Pharmacia & Upjohn Company, priority 1998, dated 2001).

Assays:
HIV-1 protease [1] = target: T1, HIV-1 protease (Human immunodeficiency virus type 1 group M subtype B, UniProt P04585); assay: biochemical; conditions: Table I; for inhibition at 0.123 µM / inhibition at 0.37 µM / inhibition at 1.1 µM / inhibition at 3.3 µM / inhibition at 10 µM / inhibition at 30 µM: read-out: Protease % Inhib; for inhibition at 0.37 µM: Dose 0.370 μM; for inhibition at 1.1 µM: Dose 1.100 μM; for inhibition at 3.3 µM: Dose 3.300 μM
In short: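 A substrate biotinylated at the N-terminal arginine and FITC-labelled at the C-terminal lysine was incubated with HIV-1 protease (10 μl of 0.1 μM) and compound for 1 h in the dark at room temperature. Buffer was 0.1 M sodium acetate pH 5.5, 1.0 M NaCl, 0.05% NP-40. Labelled product was separated from substrate using streptavidin beads and filtration, and the fluorescence gave percent inhibition.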

HIV-1 protease [2] = target: T1, HIV-1 protease; assay: biochemical; conditions: Table I; read-out: HIV Protease FITC Assay Ki
In short: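 Biotinylated, FITC-labelled peptide substrate cleaved in 0.1 M sodium acetate pH 5.5, 1.0 M NaCl, 0.05% NP-40, room temperature. Filtered labelled product read by fluorescence; nonlinear least-squares fit.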

Work on CCC(CC1CCCOC1)c1cc(O)c(C(c2cccc(NS(=O)(=O)c3cccc4cccnc34)c2)C2CC2)c(=O)o1 (stereo not drawn) [Example 145A, N-(3-[Cyclopropyl[4-hydroxy-2-oxo-6-[1-[(tetrahydro-2H-pyran-3-yl)methyl]propyl]-2H-pyran-3-yl]methyl]phenyl]-8-quinolinesulfonamide] yielded an inhibition at 0.123 µM (HIV-1 protease [1]; Dose 0.123 μM) of 109%, an inhibition at 0.37 µM (HIV-1 protease [1]) of 111% and an inhibition at 1.1 µM (HIV-1 protease [1]) of 119%. For the same compound, the inhibition at 3.3 µM (HIV-1 protease [1]) was 115%, the inhibition at 10 µM (HIV-1 protease [1]) was 113% and the inhibition at 30 µM (HIV-1 protease [1]) was 114%. For the same compound, the Ki (HIV-1 protease [2]) was 1.1 nM.

In the case of CC[C@H](Cc1ccccc1)c1cc(O)c(C(c2cccc(NS(=O)(=O)c3nccn3C)c2)C2CC2)c(=O)o1 (single isomer, unassigned) [Example 143, N-(3-(R or S)-{Cyclopropyl-[6-(1-(R)-ethylphenethyl)-4-hydroxy-2-oxo-2H-pyran-3-yl]-methyl}-phenyl)-1-methyl-1H-imidazole-2-sulfonamide], the inhibition at 0.123 µM (HIV-1 protease [1]; Dose 0.123 μM) is reported as 80.8%, the inhibition at 0.37 µM (HIV-1 protease [1]) is reported as 97.7% and the inhibition at 1.1 µM (HIV-1 protease [1]) is reported as 105%. For the same compound, the inhibition at 3.3 µM (HIV-1 protease [1]) was 102%, the inhibition at 10 µM (HIV-1 protease [1]) was 101% and the inhibition at 30 µM (HIV-1 protease [1]) was 103%. It also gave a Ki (HIV-1 protease [2]) of 0.8 nM.

CCC(CCOCCOC)c1cc(O)c(C(c2cccc(NS(=O)(=O)c3ccc(C#N)cc3)c2)C2CC2)c(=O)o1 (stereo not drawn) [Example 106, 4-Cyano-N-(3-{cyclopropyl-[6-(1-ethyl-3-{2-methoxy-ethoxy}-propyl)-4-hydroxy-2-oxo-2H-pyran-3-yl]-methyl}-phenyl)-benzenesulfonamide] gave an inhibition at 0.123 µM (HIV-1 protease [1]; Dose 0.123 μM) of 60.9%, an inhibition at 0.37 µM (HIV-1 protease [1]) of 86.6% and an inhibition at 1.1 µM (HIV-1 protease [1]) of 93.7%. For the same compound, the inhibition at 3.3 µM (HIV-1 protease [1]) was 98.9%, the inhibition at 10 µM (HIV-1 protease [1]) was 99% and the inhibition at 30 µM (HIV-1 protease [1]) was 106%. For the same compound, the Ki (HIV-1 protease [2]) was 3.29 nM.

CC(C)CC(c1cccc(NS(=O)(=O)c2cn(C)cn2)c1)c1c(O)c2c(oc1=O)CCCCCC2 (single isomer, unassigned) [Example 8, (R or S)-N-[3-1-(5,6,7,8,9,10-Hexahydro-4-hydroxy-2-oxo-2H-cycloocta[b]pyran-3-yl)-3-methylbutyl]phenyl]-1-methyl-1H-imidazole-4-sulfonamide] was tested, and the inhibition at 0.123 µM (HIV-1 protease [1]; Dose 0.123 μM) was 99.2%, the inhibition at 0.37 µM (HIV-1 protease [1]) was 110% and the inhibition at 1.1 µM (HIV-1 protease [1]) was 103%. The inhibition at 3.3 µM (HIV-1 protease [1]) was 110%, the inhibition at 10 µM (HIV-1 protease [1]) was 105% and the inhibition at 30 µM (HIV-1 protease [1]) was 102%. For the same compound, the Ki (HIV-1 protease [2]) was 0.35 nM.

With CCCC1(CCC)CC(O)=C(C(CC)c2cccc(NS(=O)(=O)c3cccc4cccnc34)c2)C(=O)O1 (single isomer, unassigned) [Example 52, (R or S)-N-[3-[1-(4-Hydroxy-2-oxo-6,6-dipropyl-5,6-dihydro-2H-pyran-3-yl)-propyl]-phenyl]-8-quinolinesulfonamide] the “PROTEASE % INHIB.” value (HIV-1 protease [1]; Dose 0.123 μM) was 85.08%, the inhibition at 0.37 µM (HIV-1 protease [1]) was 87.3% and the inhibition at 1.1 µM (HIV-1 protease [1]) was 92.6%. It also gave an inhibition at 3.3 µM (HIV-1 protease [1]) of 97.4%, an inhibition at 10 µM (HIV-1 protease [1]) of 97.2% and an inhibition at 30 µM (HIV-1 protease [1]) of 88.9%. For the same compound, the Ki (HIV-1 protease [2]) was 1.4 nM.

For CC[C@H](Cc1ccccc1)c1cc(O)c(C(c2cccc(NS(=O)(=O)c3nc4ccccc4[nH]3)c2)C2CC2)c(=O)o1 (stereo partly drawn) [Example 146, N-(3-{Cyclopropyl-[6-(1-(R)-ethylphenethyl)-4-hydroxy-2-oxo-2H-pyran-3-yl]-methyl}-phenyl)-benzimidazole-2-sulfonamide], the inhibition at 0.123 µM (HIV-1 protease [1]; Dose 0.123 μM) was 68.1%, the inhibition at 0.37 µM (HIV-1 protease [1]) was 87.4% and the inhibition at 1.1 µM (HIV-1 protease [1]) was 103%. It also gave an inhibition at 3.3 µM (HIV-1 protease [1]) of 103%, an inhibition at 10 µM (HIV-1 protease [1]) of 103% and an inhibition at 30 µM (HIV-1 protease [1]) of 102%. For the same compound, the Ki (HIV-1 protease [2]) was 0.69 nM.
